# pIC50: −log10 of the molar value.
# Columns and labels:
# [1] = tested on: LTB4 synthesis by peritoneal exudate cells; test: Ex vivo production of LTB4 from peritoneal exudate cells of drug-treated mice; type: in vivo, mouse; settings: for inhibition at 100 mg/kg: Mus musculus, po, 100 mg/kg p.o.
# Excerpt: In the following Examples where mice were used, they were male Balb/c mice (20-28 g), and where rats were used, they were male Lewis rats (180-210 g). All mice and rats were obtained from Charles River Breeding Laboratories, Kingston, N.Y. Within a single experiment, mice and rats were sex and age matched. Auranofin, phenidone, indomethacin, naproxen, and ibuprofen were each used as the free base. The compounds of Formula (I) were used either as the free base or in the appropriate salt form. Levamisole was used as the hydrochloride salt. […] Nordihydroguaiaretic acid (NDGA) was solubilized in dimethylacetamide and diluted with olive oil for subcutaneous administration. Carrageenan-induced peritoneal exudate cells from normal or drug-treated mice were washed and suspended in 2.2 ml of phosphate buffered saline. […] The cell preparation was centrifuged at 1500 rpm for 10 min and the supernatant was extracted using a C-18 silica column. […] A tetrahydrofuran, methanol, water, acetic acid (25:30:45: 0.1) solvent system, adjusted to pH 5.5 with ammonium hydroxide, was used at a flow rate of 0.7 ml/min. Cell derived LTB4 was quantified utilizing standard curves constructed with known amounts of synthetic LTB4.
# [2] = tested on: Experimental Allergic Encephalomyelitis Induced in Female Lewis Rats; test: Experimental allergic encephalomyelitis, hindleg paralysis; type: in vivo, rat (female Lewis); settings: for Inhibition of EAE, result in words: rat, in vivo
# Experimental: EAE is induced in Female (Charles River) Lewis rats by a single intradermal injection of 0.1 ml of an encephalitogenic emulsion consisting of equial parts of a 50% w/v homogenate of guinea pig spinal cord and mid-brain in 0.5% aqueous phenol and Freund's complete adjuvant (4 mg/ml killed, dried M. butyricum) into a hindpaw (left) footpad. […] Any animal which becomes paralyzed during the course of the experiment is considered to have developed EAE whether or not the paralysis is permanent. Test compounds are administered daily beginning on the day of injection, for 19 days, exclusive of days 5, 6 12 and 13. Drug activity is determined by comparing the indicidence of EAE (paralysis) of the treated group with a control (vehicle) group. The level of significant difference between the treated groups and control groups is determined by a Chi-square test using a 2×2 contingency table. Body weight changes from day 0 are also statistically compared to the control group using a Student "t" test.
# [3] = tested on: Arachidonic Acid-Induced Inflammation of the Mouse Ear; test: Arachidonic acid-induced mouse ear inflammation; type: in vivo, mouse (male Balb/c); settings: for Mouse ear edema, result in words: in vivo
# Excerpt: In the following Examples where mice were used, they were male Balb/c mice (20-28 g), and where rats were used, they were male Lewis rats (180-210 g). All mice and rats were obtained from Charles River Breeding Laboratories, Kingston, N.Y. Within a single experiment, mice and rats were sex and age matched.
# The compounds of Formula (I) were used either as the free base or in the appropriate salt form. Levamisole was used as the hydrochloride salt. The compounds were homogenized in 0.5% tragacanth. Compounds were administered by gavage at the indicated dose in a final volume of 10 ml/kg. Nordihydroguaiaretic acid (NDGA) was solubilized in dimethylacetamide and diluted with olive oil for subcutaneous administration.
# Arachidonic acid in acetone ([…]) was applied to the inner surface of the left ear. The thickness of both ears was then measured with a dial micrometer one hour after treatment, and the data were expressed as the change in thickness (10^-3 cm) between treated and untreated ears.
# Test compounds were given orally in 0.5% tragacanth at the times indicated in the text prior to the topical application of arachidonic acid.
# Parenteral administration of compound was accomplished by subcutaneous injection of solution as indicated.
# [4] = tested on: LTC4 production by human monocytes; test: LTC4 production by human monocytes; type: cell-based; settings: Monocyte; A23187-stimulated human monocytes
# Experimental: The compounds of Formula (I) were evaluated for their ability to inhibit the production of LTC4 by human monocytes according to the following assay. Human monocytes were prepared from whole blood supplied by the American Red Cross. The blood was fractinated by a two-step procedure employing sedimentation on Ficoll followed by sedimentation on Percoll. […] Non-adherent cells were removed by washing. […] When drugs were evaluated, they were added to the cells 30 minutes prior to the A23187. Supernatants were collected, […] by centrifugation and stored frozed at -20° C. until assay. The LTC4 content was determined by using a New England Nuclear Leukotriene C-4 (^3 H) RIA Kit as per instructions.
# 5-Lipoxygenase = target: T1, 5-Lipoxygenase (Rattus norvegicus, UniProt P12527); test: 5-Lipoxygenase activity (5-HETE) in RBL-1 cell extracts, 10,000 x g supernatant; type: biochemical; settings: Table 8
# T1 construct: The activities of these enzymes in extracts of RBL-1 cells were assayed; host or cells: RBL-1
# T1 sequence (P12527 1-673): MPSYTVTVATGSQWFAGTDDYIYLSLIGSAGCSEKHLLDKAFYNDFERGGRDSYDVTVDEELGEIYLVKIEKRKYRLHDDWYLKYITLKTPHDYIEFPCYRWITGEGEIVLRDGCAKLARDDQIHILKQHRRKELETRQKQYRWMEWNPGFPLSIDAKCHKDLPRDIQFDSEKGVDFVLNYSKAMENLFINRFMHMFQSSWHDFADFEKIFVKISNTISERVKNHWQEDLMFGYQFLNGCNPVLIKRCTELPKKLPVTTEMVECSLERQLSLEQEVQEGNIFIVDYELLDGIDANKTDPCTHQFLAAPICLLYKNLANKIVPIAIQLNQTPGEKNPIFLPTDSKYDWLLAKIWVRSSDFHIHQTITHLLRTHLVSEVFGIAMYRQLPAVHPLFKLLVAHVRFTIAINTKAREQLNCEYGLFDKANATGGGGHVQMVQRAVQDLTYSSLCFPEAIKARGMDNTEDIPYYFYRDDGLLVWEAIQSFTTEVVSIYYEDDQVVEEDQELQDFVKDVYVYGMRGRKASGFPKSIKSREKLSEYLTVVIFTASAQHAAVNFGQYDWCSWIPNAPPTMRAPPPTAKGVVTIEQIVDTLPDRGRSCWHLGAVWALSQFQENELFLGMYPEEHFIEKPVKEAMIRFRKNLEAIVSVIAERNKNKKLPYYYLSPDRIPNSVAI
pIC50 [4],SMILES,inhibition at 100 mg/kg ([1]; Experiment 1),inhibition at 100 mg/kg ([1]; Experiment 2),inhibition at 100 mg/kg ([1]; Experiment 3),"LTB4 production ex vivo, result in words ([1]; mouse, in vivo)","Hindleg paralysis - cumulative incidence, day 14 to 18 ([2]; 60 mg/kg/day, p.o.)","Inhibition of EAE, result in words [2]","Increase in Ear Thickness at 1 Hour ([3]; 50 mg/kg, p.o.)","Mouse ear edema, result in words [3]",IC50 5-Lipoxygenase (5-Lipoxygenase),"% Change (ear thickness) ([3]; 10 mg/kg, p.o.)","Increase in Ear Thickness at 1 Hour ([3]; 10 mg/kg, p.o.)"
5.74,Fc1ccc(-c2nc3n(c2-c2ccncc2)CCS3)cc1 [Compound 1],90%,23%,100%,Impairment of LTB4 production,0/11,efficacious,10.0 ± 1.5 × 10-3 cm,marked inhibition of the edematous response,,,
,COc1ccc2c(c1)c(CC(=O)O)c(C)n2C(=O)c1ccc(Cl)cc1 [Indomethacin],,,,,,not indomethacin,,did not exhibit detectable anti-inflammatory activity,Inactive @ 30,-5%,24.4 ± 0.8 × 10-3 cm

# — patent US5134150A, “Inhibition of the 5-lipoxygenase pathway” (priority 1989, dated 1992)
